# From the supplement of paper PMC10307832
# What was measured:
# Experiment in all cases: relative viability (nuclei count vs DMSO), 5 days (fraction); higher = more cells survive
# [1] = system: A-427
# Procedure, shortened: (§1)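 Relative viability was taken as the ratio of nuclei in treated wells to nuclei in vehicle wells. Lung cancer cell lines in 1536-well plates received compounds by pin tool one day after seeding, either one drug alone or a fixed anchor-drug dose plus five library-drug doses (not always all listed) in √10 steps. Nuclei were counted on 4× images after 5 days of treatment, and values are medians of duplicate plates.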
# [2] = system: ABC-1
# Procedure, shortened: as §1
# [3] = system: COR-L23
# Procedure, shortened: as §1
# [4] = system: EKVX
# Procedure, shortened: as §1
# [5] = system: LC-2-ad
# Procedure, shortened: as §1
# [6] = system: LCLC-97TM1
# Procedure, shortened: as §1
# [7] = system: LK-2
# Procedure, shortened: as §1
# [8] = system: LXF-289
# Procedure, shortened: as §1
# [9] = system: NCI-H1437
# Procedure, shortened: as §1
# [10] = system: NCI-H1666
# Procedure, shortened: as §1
# [11] = system: NCI-H1915
# Procedure, shortened: as §1
# [12] = system: NCI-H2085
# Procedure, shortened: as §1
# [13] = system: NCI-H2087
# Procedure, shortened: as §1
# [14] = system: NCI-H2126
# Procedure, shortened: as §1
# [15] = system: NCI-H3122
# Procedure, shortened: as §1
# [16] = system: NCI-H322M
# Procedure, shortened: as §1
# [17] = system: NCI-H460
# Procedure, shortened: as §1
# [18] = system: NCI-H647
# Procedure, shortened: as §1
# [19] = system: NCI-H661
# Procedure, shortened: as §1
# [20] = system: NCI-H727
# Procedure, shortened: as §1
# [21] = system: PC-14
# Procedure, shortened: as §1
smiles,measurement,setting,value
Nc1cccc2c1CN(C1CCC(=O)NC1=O)C2=O (configuration not stated) [Lenalidomide] + Cc1cc(Nc2cc(N3CCN(C)CC3)nc(Sc3ccc(NC(=O)C4CC4)cc3)n2)n[nH]1 [Tozasertib] (partner 0.1 µM),relative viability,[1]; first compound 0.253 µM,0.197
same,relative viability,[1]; first compound 0.8 µM,0.222
same,relative viability,[1]; first compound 2.53 µM,0.22
same,relative viability,[1]; first compound 8 µM,0.216
same,relative viability,[2]; first compound 0.253 µM,0.199
same,relative viability,[2]; first compound 0.8 µM,0.17
same,relative viability,[2]; first compound 2.53 µM,0.184
same,relative viability,[2]; first compound 8 µM,0.175
same,relative viability,[3]; first compound 0.253 µM,0.255
same,relative viability,[3]; first compound 0.8 µM,0.238
same,relative viability,[3]; first compound 2.53 µM,0.229
same,relative viability,[3]; first compound 8 µM,0.29
same,relative viability,[4]; first compound 0.253 µM,0.396
same,relative viability,[4]; first compound 0.8 µM,0.41
same,relative viability,[4]; first compound 2.53 µM,0.415
same,relative viability,[4]; first compound 8 µM,0.372
same,relative viability,[5]; first compound 0.253 µM,0.538
same,relative viability,[5]; first compound 2.53 µM,0.469
same,relative viability,[5]; first compound 8 µM,0.469
same,relative viability,[6]; first compound 0.253 µM,0.227
same,relative viability,[6]; first compound 0.8 µM,0.277
same,relative viability,[6]; first compound 2.53 µM,0.256
same,relative viability,[6]; first compound 8 µM,0.232
same,relative viability,[7]; first compound 0.253 µM,0.175
same,relative viability,[7]; first compound 0.8 µM,0.197
same,relative viability,[7]; first compound 2.53 µM,0.164
same,relative viability,[7]; first compound 8 µM,0.135
same,relative viability,[8]; first compound 0.253 µM,0.206
same,relative viability,[8]; first compound 0.8 µM,0.191
same,relative viability,[8]; first compound 2.53 µM,0.25
same,relative viability,[8]; first compound 8 µM,0.229
same,relative viability,[9]; first compound 0.253 µM,0.432
same,relative viability,[9]; first compound 0.8 µM,0.443
same,relative viability,[9]; first compound 2.53 µM,0.441
same,relative viability,[9]; first compound 8 µM,0.47
same,relative viability,[10]; first compound 0.253 µM,0.585
same,relative viability,[10]; first compound 2.53 µM,0.655
same,relative viability,[10]; first compound 8 µM,0.653
same,relative viability,[11]; first compound 0.253 µM,0.45
same,relative viability,[11]; first compound 0.8 µM,0.471
same,relative viability,[11]; first compound 2.53 µM,0.437
same,relative viability,[11]; first compound 8 µM,0.527
same,relative viability,[12]; first compound 0.253 µM,0.819
same,relative viability,[12]; first compound 0.8 µM,0.886
same,relative viability,[12]; first compound 2.53 µM,0.938
same,relative viability,[12]; first compound 8 µM,0.878
same,relative viability,[13]; first compound 0.253 µM,0.24
same,relative viability,[13]; first compound 0.8 µM,0.226
same,relative viability,[13]; first compound 2.53 µM,0.277
same,relative viability,[13]; first compound 8 µM,0.242
same,relative viability,[14]; first compound 0.253 µM,0.873
same,relative viability,[14]; first compound 0.8 µM,0.817
same,relative viability,[14]; first compound 2.53 µM,0.82
same,relative viability,[14]; first compound 8 µM,0.737
same,relative viability,[15]; first compound 0.253 µM,0.39
same,relative viability,[15]; first compound 0.8 µM,0.416
same,relative viability,[15]; first compound 2.53 µM,0.406
same,relative viability,[15]; first compound 8 µM,0.522
same,relative viability,[16]; first compound 0.253 µM,0.471
same,relative viability,[16]; first compound 0.8 µM,0.566
same,relative viability,[16]; first compound 2.53 µM,0.49
same,relative viability,[16]; first compound 8 µM,0.439
same,relative viability,[17]; first compound 0.253 µM,0.393
same,relative viability,[17]; first compound 0.8 µM,0.396
same,relative viability,[17]; first compound 2.53 µM,0.49
same,relative viability,[17]; first compound 8 µM,0.587
same,relative viability,[18]; first compound 0.253 µM,0.339
same,relative viability,[18]; first compound 0.8 µM,0.27
same,relative viability,[18]; first compound 2.53 µM,0.26
same,relative viability,[18]; first compound 8 µM,0.355
same,relative viability,[19]; first compound 0.253 µM,0.379
same,relative viability,[19]; first compound 0.8 µM,0.368
same,relative viability,[19]; first compound 2.53 µM,0.335
same,relative viability,[19]; first compound 8 µM,0.374
same,relative viability,[20]; first compound 0.253 µM,0.615
same,relative viability,[20]; first compound 0.8 µM,0.585
same,relative viability,[20]; first compound 2.53 µM,0.56
same,relative viability,[20]; first compound 8 µM,0.756
same,relative viability,[21]; first compound 0.253 µM,0.629
same,relative viability,[21]; first compound 0.8 µM,0.696
same,relative viability,[21]; first compound 2.53 µM,0.706
same,relative viability,[21]; first compound 8 µM,0.738
